Earlier results as cited in PMC12557437, “Research towards selective inhibition of the CLK3 kinase” (Beilstein Journal of Organic Chemistry, 2025).

Tests used:
Mm_CLK4 = Mm_CLK4 (Mus musculus, UniProt O35493); conditions: data taken from ref 23-24; cited from earlier work
Rn_DYRK1A = Rn_DYRK1A (Rattus norvegicus, UniProt Q63470); conditions: data taken from ref 23-24; cited from earlier work
CLK1 [1] = conditions: human protein kinase; ref 17 (SM08502), 19 (T3), 20-21 (CX-4945), 24 (DB18); cited from earlier work
CLK2 [2] = conditions: human protein kinase; ref 17 (SM08502), 19 (T3), 20-21 (CX-4945), 24 (DB18); cited from earlier work
CLK3 [3] = conditions: human protein kinase; ref 17 (SM08502), 19 (T3), 20-21 (CX-4945), 24 (DB18); cited from earlier work
CLK4 [4] = conditions: human protein kinase; ref 17 (SM08502), 20-21 (CX-4945), 24 (DB18); cited from earlier work
DYRK1A [5] = conditions: human protein kinase; ref 17 (SM08502), 19 (T3), 20-21 (CX-4945), 24 (DB18); cited from earlier work
DYRK1B [6] = tested on: DYRK1B; design: method as in earlier work; conditions: human protein kinase; ref 17 (SM08502), 19 (T3); cited from earlier work
DYRK2 [7] = tested on: DYRK2; design: method as in PMID 31560935; conditions: human protein kinase; cited from earlier work
CLK1 [8] = molecular target: CLK1; design: method as in PMID 29769258; conditions: human protein kinase; cited from earlier work
CLK2 [9] = molecular target: CLK2; design: method as in PMID 29769258; conditions: human protein kinase; cited from earlier work
CLK3 [10] = molecular target: CLK3; design: method as in PMID 29769258; conditions: human protein kinase; cited from earlier work
CLK4 [11] = molecular target: CLK4; design: method as in PMID 29769258; conditions: human protein kinase; cited from earlier work
DYRK1A [12] = molecular target: DYRK1A; design: method as in PMID 29769258; conditions: human protein kinase; cited from earlier work
DYRK1B [13] = molecular target: DYRK1B; design: method as in PMID 29769258; conditions: human protein kinase; cited from earlier work
DYRK2 [14] = molecular target: DYRK2; design: method as in PMID 29769258; conditions: human protein kinase; cited from earlier work

Sequence of Mm_CLK4 (O35493 whole entry): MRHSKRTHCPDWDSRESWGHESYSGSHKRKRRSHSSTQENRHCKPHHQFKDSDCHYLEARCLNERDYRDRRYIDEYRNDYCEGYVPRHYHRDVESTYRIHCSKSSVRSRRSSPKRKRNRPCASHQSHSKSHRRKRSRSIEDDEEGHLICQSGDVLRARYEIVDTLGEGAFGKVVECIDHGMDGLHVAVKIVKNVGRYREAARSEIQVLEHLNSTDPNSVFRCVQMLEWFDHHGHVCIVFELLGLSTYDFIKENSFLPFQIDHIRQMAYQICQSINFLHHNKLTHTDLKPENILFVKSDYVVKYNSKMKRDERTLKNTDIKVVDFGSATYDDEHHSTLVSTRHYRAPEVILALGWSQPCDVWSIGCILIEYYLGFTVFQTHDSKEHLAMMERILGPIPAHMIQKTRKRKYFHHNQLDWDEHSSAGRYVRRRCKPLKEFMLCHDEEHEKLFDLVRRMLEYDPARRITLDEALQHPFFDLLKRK

In the case of `Cc1ccc(-n2cc(COc3cccc4cnc(Nc5cccc(Cl)c5)nc34)nn2)c([N+](=O)[O-])c1` [DB18], the IC50 (Mm_CLK4) is given as 20 nM and the IC50 (Rn_DYRK1A) is given as greater than 100000 nM.

In the case of `CN1CCN(c2cc(C(=O)Nc3cc4cc(-c5cnn(C)c5)ccc4cn3)ccn2)CC1` [SM08502], the IC50 (CLK1 [1]) is given as 8 nM, the IC50 (CLK2 [2]) is given as […] and the IC50 (CLK3 [3]) is given as 22 nM. For the same compound, the IC50 (CLK4 [4]) was 1 nM, the IC50 (DYRK1A [5]) was 1 nM and the IC50 (DYRK1B [6]) was […]. The IC50 (DYRK2 [7]) was […].

In the case of `CNc1nc(NCc2cnccn2)c2c(-c3ccc4ncccc4c3)c[nH]c2n1` [Compound T-025], the Kd (CLK1 [8]) is listed as 4.8 nM, the Kd (CLK2 [9]) is listed as 0.096 nM and the Kd (CLK3 [10]) is listed as 6.5 nM. For the same compound, the Kd (CLK4 [11]) was 0.61 nM, the Kd (DYRK1A [12]) was 0.074 nM and the Kd (DYRK1B [13]) was 1.5 nM. For the same compound, the Kd (DYRK2 [14]) was 32 nM.

In the case of `CN1CCN(C(=O)C(C)(C)c2ccc(C(=O)Nc3cn4cc(-c5ccncc5)ccc4n3)cc2)CC1` [Compound T3], the IC50 (CLK1 [1]) is given as 0.67 nM, the IC50 (CLK2 [2]) is given as 15 nM and the IC50 (CLK3 [3]) is given as 110 nM. The IC50 (DYRK1A [5]) was 260 nM and the IC50 (DYRK1B [6]) was 230 nM.
